Source: patent US20230201236A1, “SPIROCYCLIC NUCLEOSIDE ANALOGUES FOR THE TREATMENT OF HEPATITIS E” (priority 2020, published 2023)

Tests used:
Assay type in all cases: cell-based
[1] = system: HEV Genotype 3 replicon Kernow-C1 p6/luc; experiment: Antiviral activity against HEV Genotype 3 replicon Kernow-C1 p6/luc in Huh7 cells (Gaussia luciferase); conditions: Huh-7, 96 h, luminescence after 4 days, 4PL fit, two experiments, read-out: relative EC50
Experimental: The antiviral activity of compounds was tested against the HEV Genotype 3 replicon Kernow-C1 p6/luc (Kernow-C1 p6: GenBank accession number JQ679013) as previously described (Debing Y, Emerson S U, Wang Y, Pan Q, Balzarini J, Dallmeier K, Neyts J. 2013. Ribavirin Inhibits In Vitro Hepatitis E Virus Replication through Depletion of Cellular GTP Pools and Is Moderately Synergistic with Alpha Interferon. Antimicrob Agents Chemother, 58:267-273). To this end, Huh7 cells were electroporated with capped in vitro transcribed Kernow-C1 p6/luc-RNA produced from Mlul-digested plasmid DNA (Shukla P, Nguyen H T, Faulk K, Mather K, Torian U, Engle R E, Emerson SU. 2012. Adaptation of a genotype 3 hepatitis E virus to efficient growth in cell culture depends on an inserted human gene segment acquired by recombination. J. Virol. 86:5697-5707), seeded in 96-well plates containing serial dilutions of the test compounds. For virus control (VC) compound was omitted. After 4 days, luminescence produced by the secreted Gaussia luciferase was quantified using the Promega Renilla luciferase kit and corrected for background with a cell control (CC, viral RNA and compound omitted). The relative 50% effective concentration (EC50) is defined as the concentration of compound that causes a 50% reduction in the Luc signal, relative to the signal range. The relative EC50 was based on two experiments and derived by a nonlinear regression fit in GraphPad using a four-parameter logistic (4PL) model.

[2] = system: rat HEV replicon LA-B350/luc; experiment: Antiviral activity against rat HEV replicon LA-B350/luc in Huh7 cells (Gaussia luciferase); conditions: Huh-7, 72 h, luminescence after 3 days, two or three experiments
Experimental: The antiviral activity of compounds was tested against the rat HEV replicon LA-B350/luc as described in Debing et al (Dis Model Mech 2016; 9:1203-10). To this end, Huh7 cells were electroporated with capped viral RNA produced from plasmid pLA-B350/luc, plated in 96-well plates and treated with each of compounds at selected concentrations. For virus control (VC), compound was omitted. After 3 days, luminescence produced by the secreted Gaussia luciferase was quantified using the Promega Renilla luciferase kit and corrected for background with a cell control (CC, viral RNA and compound omitted). The 50% effective concentration (EC50) is defined as the concentration of compound that causes a 50% reduction in the Luc signal compared to that of average corrected VC. The EC50 was based on two or three experiments and derived by a nonlinear regression fit in GraphPad using a two-parameter logistic model while keeping the slope variable.

[3] = Viability evaluation (MTS/PMS) of Huh7 cells transfected with the rat HEV replicon; conditions: human, highest tested concentration 50 μM
Experimental: (§1) For viability evaluation, medium was removed and cells were subsequently incubated with MTS/PMS solution (3-(4,5-dimethylthiazol-2-yl)-5-(3-carboxymethoxyphenyl)-2-(4-sulfophenyl)-2H-tetrazolium/phenazinemethosulfate), which is metabolized to produce a brown, water-soluble product that is quantified after 1 h at 37° C. by absorbance read-out at 498 nm. Obtained values are expressed as percent inhibition of untreated RNA-transfected control condition. The CC50 represents the concentration at which the metabolic activity of the cells would be reduced to 50% of the metabolic activity of untreated cells (and was based on two experiments and derived by a nonlinear regression fit in GraphPad using a two-parameter logistic model while keeping the slope variable).

[4] = Viability evaluation (MTS/PMS) of Huh7 cells transfected with Kernow-C1 p6/luc RNA; conditions: human, highest tested concentration 50 μM, read-out: relative CC50
Experimental: as §1, with “percentage” for “percent inhibition”, “The relative” for “The”, “and” for “(and”, “two or three” for “two”, “four-parameter” for “two-parameter”, “(4PL) model.” for “model while keeping the slope variable).”

Structure (SMILES) | EC50 [1] | EC50 [2] | CC50 [3] | CC50 [4]
CC(C)OC(=O)C(C)NP(=O)(OC[C@@]1(N=[N+]=[N-])O[C@@H](n2ccc(=O)[nH]c2=O)[C@@]2(CCS2)[C@@H]1O)Oc1ccccc1 (stereo in doubt) [Compound 1, isopropyl (2R)-2-[[[(4R,5R,6R,8R)-6-azido-8-(2,4-dioxopyrimidin-1-yl)-5-hydroxy-7-oxa-1-thiaspiro[3.4]octan-6-yl]methoxy-phenoxy-phosphoryl]amino]propanoate] | > 50 µM | 0.74 µM | > 50 µM | > 50 µM
CC(C)OC(=O)[C@H](C)NP(=O)(OC[C@H]1O[C@@H](n2ccc(=O)[nH]c2=O)[C@@]2(CCS2)[C@@H]1O)Oc1ccccc1 (stereo partly drawn) [Compound 3, (2S)-isopropyl 2-(((((4R,5R,7R,8R)-5-(2,4-dioxo-3,4-dihydropyrimidin-1(2H)-yl)-8-hydroxy-6-oxa-1-thiaspiro[3.4]octan-7-yl)methoxy)(phenoxy)phosphoryl)amino)propanoate] | > 50 µM | 27 µM | > 50 µM | > 50 µM
COC(=O)C(C)(C)NP(=O)(OC[C@H]1O[C@@H](n2ccc(=O)[nH]c2=O)[C@@]2(CCO2)[C@@H]1O)Oc1ccccc1 (stereo partly drawn) [Compound 4, methyl 2-[[[(4R,5R,7R,8R)-5-(2,4-dioxo-3,4-dihydropyrimidin-1(2H)-yl)-8-hydroxy-1,6-dioxaspiro[3.4]octan-7-yl]methoxy](phenoxy)phosphorylamino]-2-methylpropanoate] | 0.53 µM | 0.36 µM | > 50 µM | > 50 µM
CC(C)OC(=O)[C@H](C)NP(=O)(OC[C@@]1(F)O[C@@H](n2ccc(=O)[nH]c2=O)[C@@]2(CCS2)[C@@H]1O)Oc1ccccc1 (stereo partly drawn) [Compound 2, (2S)-isopropyl 2-(((((4R,5R,7S,8R)-5-(2,4-dioxo-3,4-dihydropyrimidin-1(2H)-yl)-7-fluoro-8-hydroxy-6-oxa-1-thiaspiro[3.4]octan-7-yl)methoxy)(phenoxy)phosphoryl)-amino)propanoate] |  | 5.9 µM | > 50 µM | > 50 µM
